Test results published in ChEMBL document CHEMBL5726111, “Substituted pyridinone compounds as MEK inhibitors” (2017).

Molecular target: Dual specificity mitogen-activated protein kinase kinase 1 (Homo sapiens, UniProt Q02750)
Assay: LANCE Ultra Assay: The LANCE Ultra assay kit was purchased from PerkinElmer. The ULight-MBP peptide, Europium labeled Antibody and LANCE Detection buffer were purchased from PerkinElmer. The APT and dimethylsulfoxide were purchased from Sigma-Aldrich. The 5× Kinase buffer were purchased from Invitrogen. […] A Mek1 kinase assay (LANCE, PerkinElmer) was developed for supporting compound profiling and lead optimization. […] Then the phosphorylated Erk1 was able to phosphorylate ULight-MBP peptide (PerkinElmer). The phosphorylated peptide was detected by Europium-anti-phospho-MBP (PerkinElmer). […] After quenching the reaction with […], 2 nM Europium-anti-phospho-MBP was added to the reaction mixture and incubated for 60 min, followed by a detection using EnVision Multilabel Plate Reader (PerkinElmer).

Chain of Dual specificity mitogen-activated protein kinase kinase 1 (Q02750 whole entry): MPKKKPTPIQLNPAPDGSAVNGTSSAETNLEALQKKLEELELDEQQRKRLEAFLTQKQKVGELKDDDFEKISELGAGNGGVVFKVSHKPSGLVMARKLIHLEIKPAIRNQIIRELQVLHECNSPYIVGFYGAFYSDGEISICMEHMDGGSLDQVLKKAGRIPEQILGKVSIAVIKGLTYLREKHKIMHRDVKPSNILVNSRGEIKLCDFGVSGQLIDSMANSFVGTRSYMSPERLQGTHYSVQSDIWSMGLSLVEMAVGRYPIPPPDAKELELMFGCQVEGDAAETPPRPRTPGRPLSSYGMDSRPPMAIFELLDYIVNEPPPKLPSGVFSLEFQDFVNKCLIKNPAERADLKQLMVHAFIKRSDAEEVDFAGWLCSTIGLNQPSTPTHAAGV

- IC50: < 500 nM
SMILES: Cn1c(Nc2ccc(I)cc2F)c(C(=O)NOCCO)c2c(c1=O)CC(C)(C)C2
